Assay results as given in PMC9579956 (RSC Medicinal Chemistry, 2022).

These compounds were tested against Mycobacterium thermoresistible (Mtr) LpqY (Mycolicibacterium thermoresistibile, UniProt G7CES0). Conditions: single dose MST screen against LpqY.
Chain of Mycobacterium thermoresistible (Mtr) LpqY (G7CES0 29-471): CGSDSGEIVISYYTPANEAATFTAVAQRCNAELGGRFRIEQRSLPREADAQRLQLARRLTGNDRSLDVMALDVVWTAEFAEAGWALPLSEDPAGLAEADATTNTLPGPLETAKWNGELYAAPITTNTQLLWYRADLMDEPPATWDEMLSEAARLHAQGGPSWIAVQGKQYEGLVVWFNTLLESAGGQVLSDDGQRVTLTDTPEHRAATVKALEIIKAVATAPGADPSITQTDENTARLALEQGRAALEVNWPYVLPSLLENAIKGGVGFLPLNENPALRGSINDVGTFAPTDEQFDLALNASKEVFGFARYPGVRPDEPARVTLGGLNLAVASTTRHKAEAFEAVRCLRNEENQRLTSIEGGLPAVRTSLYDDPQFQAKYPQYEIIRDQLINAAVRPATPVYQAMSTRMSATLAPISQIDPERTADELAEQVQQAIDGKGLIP
Format: binding
With `Nc1ncc(-c2ccc(C(F)(F)F)nc2)cc1-c1ccc(C(F)(F)F)nc1` [MMV668727] the “Pathogen Box screen signal/noise ratio” value was 2.0. `CCCNC(=O)N1CCC2(CC1)CC(=O)c1cc(C)ccc1O2` [MMV085230] was tested, and the “Pathogen Box screen signal/noise ratio” value was 1.0. In the case of `c1ccc(Oc2ccc(-c3cc(N4CCOCC4)[nH]n3)cc2)cc1` [MMV045105], the “Pathogen Box screen signal/noise ratio” value was 1.1. For `O=C(c1ccc(NCCO)cc1)C1C[C@H]1c1ccc(Cl)cc1` (stereo partly drawn) [MMV676877], the “Pathogen Box screen signal/noise ratio” value was 0.0. In the case of `CC(C)C(Oc1cccc2ccccc12)C(=O)O` (stereo not drawn) [MMV676191], the “Pathogen Box screen signal/noise ratio” value was 0.9. `CC(=O)Nc1ccc(-c2noc(CC3CCCN(Cc4cccc(F)c4C)C3)n2)cc1` (stereo not drawn) [MMV689061] was tested, and the “Pathogen Box screen signal/noise ratio” value was 0.9. With `CC(C)(C)c1ccc(N[C@@H]2CCCC[C@H]2NC(=O)c2ccco2)cc1` [MMV675969] the “Pathogen Box screen signal/noise ratio” value was 0.3. With `CCc1c(C)nc(-n2nc(C)cc2NC(=O)c2ccccc2SC)[nH]c1=O` [MMV676477] the “Pathogen Box screen signal/noise ratio” value was 0.7. With `O=C(NC1CC1)c1ccc(CSCc2ccccc2Cl)o1` [MMV007803] the “Pathogen Box screen signal/noise ratio” value was 0.148. In the case of `COc1ccc(-c2nnc3ccc(-c4cccc(C(C)C)c4)cn23)cc1OC` [MMV688313], the “Pathogen Box screen signal/noise ratio” value was 1.1. `CCc1nc2ccccc2n1CC(O)COc1cc(C)ccc1Cl` (stereo not drawn) [MMV676449] was tested, and the “Pathogen Box screen signal/noise ratio” value was 1.2. In the case of `COc1cc(Br)cc2cc(C(=O)Nc3cccc(C(F)(F)F)c3)c(=O)oc12` [MMV688891], the “Pathogen Box screen signal/noise ratio” value was 0.646. In the case of `O=C1[C@@H](Oc2ccccc2)[C@@H](c2ccc(Cl)cc2)N1CCn1cnc2c(NCc3ccccc3)ncnc21` [MMV688352], the “Pathogen Box screen signal/noise ratio” value was 0.212. With `Cc1cc(Cl)ccc1NC(=O)CCc1ccc(S(=O)(=O)NCC(C)C)cc1` [MMV161996] the “Pathogen Box screen signal/noise ratio” value was 1.2. `O=C(c1ccco1)N(CCCn1ccnc1)c1nc2c(Cl)cccc2s1` [MMV688936] was tested, and the “Pathogen Box screen signal/noise ratio” value was 1.4. With `O=C(NC1CC1)c1ccc(N2CCOc3ccc(Cl)cc32)s1` [MMV020537] the “Pathogen Box screen signal/noise ratio” value was 1.9. `CO/C=C(/C(=O)OC)c1ccccc1Oc1cc(Oc2ccccc2C#N)ncn1` [MMV021057] was tested, and the “Pathogen Box screen signal/noise ratio” value was 0.6. With `Cc1cc2ccccc2n1CC(=O)N1CC(C(=O)N2CCCCC2)Oc2ccccc21` (stereo not drawn) [MMV020520] the “Pathogen Box screen signal/noise ratio” value was 2.0. In the case of `Cc1cc(Cl)c(S(=O)(=O)N2CCCC2)cc1OCC(=O)NC1CCCCC1` [MMV006833], the “Pathogen Box screen signal/noise ratio” value was 1.6. With `CCc1cc(=O)n(C)c(SC(C)C(=O)Nc2ccc(F)cc2)n1` (stereo not drawn) [MMV688980] the “Pathogen Box screen signal/noise ratio” value was 1.3. `CN1CCC(c2cc(-c3ccncc3)c(-c3ccc(F)cc3)[nH]2)CC1` [MMV688703] was tested, and the “Pathogen Box screen signal/noise ratio” value was 1.2. In the case of `NCCCC(N)(C(=O)O)C(F)F` (stereo not drawn) [MMV001625], the “Pathogen Box screen signal/noise ratio” value was 0.316. For `Clc1ccc(CCNc2cc(-c3ccccc3)nc3ncnn23)cc1` [MMV688889], the “Pathogen Box screen signal/noise ratio” value was 3.0. In the case of `CC(C)(C)n1nc(-c2ccccc2)c2c(N)ncnc21` [MMV688548], the “Pathogen Box screen signal/noise ratio” value was 1.0. For `Cc1cc(NCC(C)C)c2n[nH]c(-c3ccccc3)c2n1` [MMV021375], the “Pathogen Box screen signal/noise ratio” value was 0.9. For `CC(C)(C)OC(=O)N1CCN(c2nccc(-c3ccc(-c4ccc(Cl)cc4)s3)n2)CC1` [MMV688416], the “Pathogen Box screen signal/noise ratio” value was 0.333. With `O=C(NCCN1CCCC1)c1cc(NCCN2CCOCC2)nc2ccc(Cl)cc12` [MMV634140] the “Pathogen Box screen signal/noise ratio” value was 0.9. With `O=C(C1CCN(c2nnc(-n3cccc3)s2)CC1)N1CCC(Cc2ccccc2)CC1` [MMV676478] the “Pathogen Box screen signal/noise ratio” value was 0.661. In the case of `NCCC(O)C(=O)N[C@@H]1C[C@H](N)[C@@H](OC2O[C@H](CN)[C@@H](O)[C@H](O)[C@H]2O)[C@H](O)C1OC1O[C@H](CO)[C@@H](O)[C@H](N)[C@H]1O` (stereo partly drawn) [MMV687796], the “Pathogen Box screen signal/noise ratio” value was 1.2. With `O=C(Nc1ccnc(-c2cccnc2)n1)c1cc(C(F)(F)F)cc(C(F)(F)F)c1` [MMV019838] the “Pathogen Box screen signal/noise ratio” value was 2.8. `Cc1cccc(C(=O)Nc2ccnc(N(C)C3CCN(CC(C)C)CC3)c2)c1` [MMV024829] was tested, and the “Pathogen Box screen signal/noise ratio” value was -0.0167. `c1ccc2c(c1)CN(CC1CC1)CC1(CCN(Cc3c[nH]c4cnccc34)CC1)O2` [MMV023183] was tested, and the “Pathogen Box screen signal/noise ratio” value was 2.8. In the case of `O=C(NC1CCCCC1)N1CCN(Cc2ccc3c(c2)OCO3)CC1` [MMV676444], the “Pathogen Box screen signal/noise ratio” value was 1.3. In the case of `O=C(CN1CCOCC1)Nc1ccc2ncnc(Nc3ccc(OCc4cccc(F)c4)c(Cl)c3)c2c1` [MMV688274], the “Pathogen Box screen signal/noise ratio” value was 1.0. For `COc1ccc(C2CC(c3cccs3)=NN2C(=O)c2ccco2)cc1OC` (stereo not drawn) [MMV019234], the “Pathogen Box screen signal/noise ratio” value was 2.1. For `Nc1nc(N)c2c3c(sc2n1)CN(Cc1ccccc1)CC3` [MMV688345], the “Pathogen Box screen signal/noise ratio” value was 2.8. With `Cc1cccc(NC(=O)c2cc(S(=O)(=O)N(C)c3ccc(F)cc3)ccc2Cl)n1` [MMV676528] the “Pathogen Box screen signal/noise ratio” value was 1.1. With `COc1ccc(-c2cnc3cnc(-c4cccc(OC(C)C)c4)cn23)cc1` [MMV688270] the “Pathogen Box screen signal/noise ratio” value was 0.0179. For `c1ccc(-c2[nH]c3ccccc3c2C(c2ccccn2)N2CCCC2)cc1` (stereo not drawn) [MMV688762], the “Pathogen Box screen signal/noise ratio” value was 0.9. For `CC(=O)NCC1CN(c2ccc(-c3ccc(CNCc4cn[nH]n4)cc3)c(F)c2)C(=O)O1` (stereo not drawn) [MMV688327], the “Pathogen Box screen signal/noise ratio” value was 0.344. With `CC(C)(C(=O)Nc1ccc(F)cc1)n1cc(-c2ccccc2F)cn1` [MMV687239] the “Pathogen Box screen signal/noise ratio” value was 0.467. With `CS(=O)(=O)c1ccc(C(=O)N(CC2CCCO2)c2nc3ccccc3s2)cc1[N+](=O)[O-]` (stereo not drawn) [MMV688761] the “Pathogen Box screen signal/noise ratio” value was 0.6. In the case of `CC(C)(C)c1cnc(NC(=O)c2ccccc2O)s1` [MMV495543], the “Pathogen Box screen signal/noise ratio” value was 0.8. `COc1cccc(-n2nnnc2S(=O)(=O)Cc2ccccc2)c1` [MMV676388] was tested, and the “Pathogen Box screen signal/noise ratio” value was 0.952. For `CCc1ccccc1-n1c(C)cn2c3c(=O)n(C(C(=O)OC)C(C)C)c(=O)n(C)c3nc12` (stereo not drawn) [MMV688550], the “Pathogen Box screen signal/noise ratio” value was 0.222. With `O=C(N[C@H](Cc1ccccc1)C(=O)Nc1ccccc1N1CCOCC1)c1cccs1` [MMV688845] the “Pathogen Box screen signal/noise ratio” value was 1.6. For `Cc1cccc(Cn2ccc(NC(=O)c3ccc4c(c3)OCO4)n2)c1` [MMV676386], the “Pathogen Box screen signal/noise ratio” value was 2.9. `CNC1C(OC2C(OC3C(O)C(O)C(NC(=N)N)C(O)C3NC(=N)N)OC(C)C2(O)C=O)OC(CO)C(O)C1O` (stereo not drawn) [MMV688994] was tested, and the “Pathogen Box screen signal/noise ratio” value was 0.56. `CCC(Sc1nc2ccccc2o1)C(=O)Nc1nnc(C)s1` (stereo not drawn) [MMV611037] was tested, and the “Pathogen Box screen signal/noise ratio” value was 0.9. `CN1CCC(NCc2cccc(-c3ccc(S(=O)(=O)NCc4ccccc4)cc3)c2)CC1` [MMV022029] was tested, and the “Pathogen Box screen signal/noise ratio” value was -0.0167. `COCC(C)NC(=O)CSc1ncnc2sc(-c3ccccc3)cc12` (stereo not drawn) [MMV676536] was tested, and the “Pathogen Box screen signal/noise ratio” value was 1.9. For `CC(=O)NC[C@H]1CN(c2ccc(N3CCSCC3)c(F)c2)C(=O)O1` [MMV688756], the “Pathogen Box screen signal/noise ratio” value was 1.1. `Cc1ccc(NC(=O)CC2COc3ccccc3O2)cc1Cl` (stereo not drawn) [MMV676431] was tested, and the “Pathogen Box screen signal/noise ratio” value was 2.3. `Cn1c(=O)c2c(S(C)(=O)=O)snc2n(C)c1=O` [MMV687251] was tested, and the “Pathogen Box screen signal/noise ratio” value was 0.0729. With `Cc1cc(C(=O)Nc2ccc(-c3ccccc3)cc2)no1` [MMV020152] the “Pathogen Box screen signal/noise ratio” value was 0.742. For `CCNC(=O)C(C)Nc1nc(-c2cccnc2)nc2sc(C)c(C)c12` (stereo not drawn) [MMV1037162], the “Pathogen Box screen signal/noise ratio” value was 1.2. For `Cc1ccccc1C(=O)N1N=C(Nc2ccccc2)SC1(C)C` [MMV688771], the “Pathogen Box screen signal/noise ratio” value was 0.4.
